Active and inactive are the calls of the source. The rule behind the calls is not given here.
Assays:
K562 [1] = assay: Cytotoxicity against human K562 cells after 48 hrs by MTT assay; format: functional, cell-based; conditions: K562, 48 h
ADR5000 cell line = assay: Cytotoxicity against human CEM/ADR5000 cells after 48 hrs by MTT assay; format: functional, cell-based; conditions: ADR5000, 48 h
CCRF-CEM = assay: Cytotoxicity against human CCRF-CEM cells after 48 hrs by MTT assay; format: functional, cell-based
K562-Lucena 1 [2] = assay: Cytotoxicity against human K562-Lucena 1 cells after 48 hrs by MTT assay; format: functional, cell-based; conditions: K562-Lucena 1, 48 h
K562 [3] = assay: Induction of cell cycle arrest in human K562 cells assessed as decrease in accumulation of cells at S phase at 1.4 uM after 24 hrs by propidium iodide staining based flow cytometric analysis; format: functional
K562 [4] = assay: Induction of cell cycle arrest in human K562 cells assessed as decrease in accumulation of cells at G1 phase at 1.4 uM after 24 hrs by propidium iodide staining based flow cytometric analysis; format: functional
K562-Lucena 1 [5] = assay: Induction of cell cycle arrest in human K562-Lucena 1 cells assessed as decrease in accumulation of cells at G1 phase at 40 uM after 24 hrs by propidium iodide staining based flow cytometric analysis; format: functional

Structure (SMILES)	IC50 (K562 [1])	IC50 (ADR5000 cell line)	IC50 (CCRF-CEM)	IC50 (K562-Lucena 1 [2])	Activity (K562 [3])	Activity (K562 [4])	Activity (K562-Lucena 1 [5])
C=C(CO)C(=O)O[C@H]1C/C(CO)=C/CC/C(C)=C/[C@H]2OC(=O)C(=C)[C@H]12	7 µM	1.7 µM	0.46 µM	> 10 µM			
COc1cccc2c1C(=O)c1c(O)c3c(c(O)c1C2=O)C[C@@](O)(C(=O)CO)C[C@@H]3O[C@H]1C[C@H](N)[C@H](O)[C@H](C)O1 [DOXORUBICIN]	1.4 µM	> 10 µM	0.17 µM	> 10 µM	inactive	inactive	Active
C=C(CO)C(=O)O[C@H]1C[C@@]2(C=O)OC2CC/C(C)=C/[C@H]2OC(=O)C(=C)[C@H]12 (stereo not given in full)	6.9 µM	4.6 µM	2 µM	> 10 µM			

Reference: ChEMBL document CHEMBL4622878, “Cytotoxic Activity of Germacrane-Type Sesquiterpene Lactones from Dimerostemma aspilioides” (J Nat Prod, 2020)
